PMC12095047, “Transport of phenoxyacetic acid herbicides by PIN-FORMED auxin transporters” (Nature Plants, 2025)
Where “and” joins values, the source holds several entries; their conditions need not be identical. Equal entries are not always repeated. Where two headings read alike, the source gives them in different places.

How the values were obtained:
A. thaliana PIN8 = target: T1, A. thaliana PIN8 (Arabidopsis thaliana, UniProt Q9LFP6); experiment: SSM electrophysiology, peak current response on PIN8 proteoliposomes; type: biochemical; conditions: for Peak current: individual sensors; for EC50 / maximal current Imax: WT PIN8 proteoliposomes, Michaelis–Menten fit
T1 construct: made in house
T1 sequence (Q9LFP6 1-367): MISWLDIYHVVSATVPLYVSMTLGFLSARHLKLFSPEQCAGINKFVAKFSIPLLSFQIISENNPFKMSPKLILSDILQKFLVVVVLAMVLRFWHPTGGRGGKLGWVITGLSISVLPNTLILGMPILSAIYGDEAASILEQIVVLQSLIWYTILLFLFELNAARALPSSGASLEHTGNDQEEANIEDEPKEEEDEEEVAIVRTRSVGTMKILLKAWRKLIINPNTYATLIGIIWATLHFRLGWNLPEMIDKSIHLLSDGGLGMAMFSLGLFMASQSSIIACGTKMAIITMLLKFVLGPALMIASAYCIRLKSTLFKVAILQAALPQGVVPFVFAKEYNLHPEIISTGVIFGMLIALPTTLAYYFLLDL
Description: (§1) SSM, using a SURFE2R N1 from Nanion Technologies, was conducted as described. In brief, soy polar lipid mix (38% phosphatidyl choline, 30% phosphatidyl ethanolamine, 18% phosphatidyl inositol, 7% phosphatidic acid and 7% other soy lipids) and 1-palmitoyl-2-oleoyl-sn-glycero-3-phosphocholin were purchased from Avanti. Liposomes were prepared in Ringer solution without Ca^2+ (115 mM NaCl, 2.5 mM KCl, 1 mM NaHCO3, 10 mM HEPES pH7.4, 1 mM MgCl2) and homogenized using a Lipsofast (Avestin) with a […]. Triton X-100 was added to the liposomes to a final concentration of 1% (v/v). Protein was added to liposomes to a calculated lipid-to-protein ratio (LPR) of 10 unless stated otherwise. The detergent was removed using 400 mg ml^−1 Bio Beads (BioRad) overnight at 4 °C in a rotary shaker. Proteoliposomes were frozen in liquid nitrogen and kept at −80 °C until use. Proteoliposomes were diluted 1:5 in Ringer solution without Ca^2+, sonicated five times and then applied to the sensors by centrifugation (30 min, 3,000 g, 4 °C). Non-activating buffer was Ringer solution without Ca^2+ as described unless specified otherwise, and activating buffer contained the substrate of interest. In most instances we used a single-solution exchange experiment. In this case proteoliposomes, immobilized on the supported membrane, are kept in non-activating buffer as specified. At the beginning of the experiment the non-activating buffer is replaced with fresh identical non-activating buffer, and after 1 s, activating buffer (same buffer containing substrate) is added. After another second, the buffer is replaced with non-activating buffer again. Current response is recorded throughout the entire 3 s. For competition or inhibition, the respective compound was present in non-activating and activating solutions. Each experiment was performed on at least two individual sensors. On each sensor each measurement consists of three technical replicates where the mean is calculated. KD values were determined as described previously. Briefly, the binding current induced by 100 µM NPA was recorded in the presence of different concentrations of the substrate under investigation ranging between 0 µM and 1,000 µM present in the activating solution and the non-activating solution (Extended Data Fig. 5b). […] The maximum peak current was then plotted as a function of the concentration of the substrate under investigation and plotted against the degree of inhibition and fitted with a one-site binding model using GraphPad Prism V10.4.1 The half maximal concentration corresponds to the KD of the substrate under investigation.

PIN8 = target: T2, PIN8 (Arabidopsis thaliana, UniProt Q9LFP6); experiment: SSM electrophysiology, KD by inhibition of the NPA binding current
T2 construct: made in house
T2 sequence (Q9LFP6 1-367): T1 sequence (Q9LFP6 1-367)
Description: as §1

A. thaliana PIN3 = target: T3, A. thaliana PIN3 (Arabidopsis thaliana, UniProt Q9S7Z8); experiment: Xenopus oocyte efflux assay, PIN3 with or without PID kinase; type: cell-based; conditions: for Rel. 2,4-D transport rate (% exported/min): replicates; for Rel. 2,4-D transport rate: PIN3 oocytes, individual experiments
T3 construct: expressed in transfected cells; host or cells: Xenopus oocytes (cRNA injection)
T3 sequence (Q9S7Z8 1-640): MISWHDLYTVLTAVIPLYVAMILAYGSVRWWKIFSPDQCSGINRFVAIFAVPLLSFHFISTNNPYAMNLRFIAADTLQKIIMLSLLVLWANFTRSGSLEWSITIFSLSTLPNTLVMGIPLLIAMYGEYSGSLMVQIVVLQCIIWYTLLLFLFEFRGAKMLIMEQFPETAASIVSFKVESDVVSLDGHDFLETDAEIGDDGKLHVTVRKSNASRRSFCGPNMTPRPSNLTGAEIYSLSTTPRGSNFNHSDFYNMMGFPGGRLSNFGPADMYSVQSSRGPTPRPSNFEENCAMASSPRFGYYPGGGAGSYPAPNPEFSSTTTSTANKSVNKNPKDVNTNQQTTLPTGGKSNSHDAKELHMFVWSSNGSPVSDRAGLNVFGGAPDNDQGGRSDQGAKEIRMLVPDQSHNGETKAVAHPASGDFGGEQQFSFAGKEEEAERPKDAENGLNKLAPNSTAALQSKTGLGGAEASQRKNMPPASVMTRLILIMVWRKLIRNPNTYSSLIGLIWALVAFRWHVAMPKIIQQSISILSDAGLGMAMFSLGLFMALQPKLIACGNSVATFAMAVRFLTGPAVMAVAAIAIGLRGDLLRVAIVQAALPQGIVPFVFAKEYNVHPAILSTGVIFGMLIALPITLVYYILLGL
Description: Oocyte efflux experiments were carried out as described[12],[20],[26]. Briefly, oocytes were injected with 150 ng transporter complementary RNA without or with 75 ng kinase cRNA. [^3H]-IAA (25 Ci mmol^−1) and [^3H]-4-CPA (37.7 Ci mmol^−1) was purchased from RC Tritec. [^3H]-2,4-D (25 Ci mmol^−1) was purchased from ARC. Oocytes were injected with substrate to reach an internal concentration of 1 µM, corresponding to 100%. Residual radioactivity was determined for each individual oocyte by liquid scintillation counting after the time points indicated and are expressed relative to the initial 100%. Each time point represents the mean and s.e. of ten oocytes. To calculate the relative transport rate in percentage per minute, linear regression was performed. Each data point in Fig. 1b,c and Extended Data Fig. 2b,e represents the transport rate of one biological replicate using oocytes collected from different Xenopus females.

[1] = Peak current, sheet F2A (Fig. 2a, KD of substrate binding), individual sensors

O=C(O)COc1ccc(Cl)cc1 [4-CPA, 4-chlorophenoxyacetic acid]
Peak current (A. thaliana PIN8; 2 mM 4-CPA, absence of NPA): 6.735 nA and 9.149 nA
Peak current (A. thaliana PIN8; 2 mM 4-CPA, presence of 20 µM NPA): 3.357 nA
EC50 (A. thaliana PIN8): 800 ± 200 µM
maximal current Imax (A. thaliana PIN8): 12 ± 2 nA
Peak current (A. thaliana PIN8; WT, 5 µM substrate): 0.07132 nA and 0.09263 nA and 0.01805 nA
Peak current (A. thaliana PIN8; WT, 20 µM substrate): 0.2459 nA and 0.3985 nA and 0.3482 nA
Peak current (A. thaliana PIN8; WT, 50 µM substrate): 0.634 nA and 0.9337 nA and 0.8708 nA
Peak current (A. thaliana PIN8; WT, 100 µM substrate): 1.233 nA and 1.738 nA and 1.591 nA
Peak current (A. thaliana PIN8; WT, 500 µM substrate): 3.698 nA and 5.58 nA and 4.779 nA
Peak current (A. thaliana PIN8; WT, 1000 µM substrate): 5.355 nA and 8.269 nA and 6.9634 nA
Peak current (A. thaliana PIN8; WT, 2000 µM substrate): 7.157 nA and 9.571 nA and 9.556 nA
inhibition at 5 µM (PIN8; 5 µM substrate, 100 µM NPA, individual sensors, read-out: Rel. Inhibition of NPA peak currents): 3.03%
inhibition at 20 µM (PIN8; 20 µM substrate, 100 µM NPA, individual sensors, read-out: Rel. Inhibition of NPA peak currents): 9.7%
inhibition at 50 µM (PIN8; 50 µM substrate, 100 µM NPA, individual sensors, read-out: Rel. Inhibition of NPA peak currents): 16%
inhibition at 100 µM (PIN8; 100 µM substrate, 100 µM NPA, individual sensors, read-out: Rel. Inhibition of NPA peak currents): 24.7%
inhibition at 500 µM (PIN8; 500 µM substrate, 100 µM NPA, individual sensors, read-out: Rel. Inhibition of NPA peak currents): 58.6%
inhibition at 1000 µM (PIN8; 1000 µM substrate, 100 µM NPA, individual sensors, read-out: Rel. Inhibition of NPA peak currents): 73.5%
inhibition at 2000 µM (PIN8; 2000 µM substrate, 100 µM NPA, individual sensors, read-out: Rel. Inhibition of NPA peak currents): 82.1%
inhibition at 5000 µM (PIN8; 5000 µM substrate, 100 µM NPA, individual sensors, read-out: Rel. Inhibition of NPA peak currents): 96.6%
lower binding affinity compared to IAA (PIN8; KD compared to IAA): ~ 8 fold
Kd (PIN8; [1]): 319 µM and 330 µM and 262 µM

O=C(O)COc1ccc(Cl)cc1Cl [2,4-D, 2,4-dichlorophenoxyacetic acid]
Peak current (A. thaliana PIN8; 100 μM 2,4-D, absence of NPA): 3.226 nA and 5.875 nA
Peak current (A. thaliana PIN8; 100 μM 2,4-D, presence of 20 µM NPA): 0.9715 nA and 1.501 nA and 1.34 nA
EC50 (A. thaliana PIN8): 180 µM and 179 µM
maximal current Imax (A. thaliana PIN8): 17 ± 2 nA
Peak current (A. thaliana PIN8; WT, 5 µM substrate): 0.6835 nA and 0.6464 nA and 0.7573 nA
Peak current (A. thaliana PIN8; WT, 20 µM substrate): 2.106 nA and 1.934 nA and 2.262 nA
Peak current (A. thaliana PIN8; WT, 50 µM substrate): 4.032 nA and 3.705 nA
Peak current (A. thaliana PIN8; WT, 2000 µM substrate): 15.4919 nA and 14.1952 nA and 17.3107 nA
Kd (PIN8; [1]): 64.4 µM and 50.6 µM and 62.3 µM
Kd (PIN8; inhibition of peak current elicited by 100 µM NPA, read-out: KD of substrate binding by PIN8): 59 ± 7 µM
inhibition at 20 µM (PIN8; read-out: Rel. Inhibition of NPA peak currents, 20 µM substrate, 100 µM NPA, individual sensors): 22.5%
inhibition at 50 µM (PIN8; read-out: Rel. Inhibition of NPA peak currents, 50 µM substrate, 100 µM NPA, individual sensors): 46.2%
inhibition at 100 µM (PIN8; read-out: Rel. Inhibition of NPA peak currents, 100 µM substrate, 100 µM NPA, individual sensors): 65.6%
inhibition at 250 µM (PIN8; read-out: Rel. Inhibition of NPA peak currents, 250 µM substrate, 100 µM NPA, individual sensors): 83.2%
inhibition at 500 µM (PIN8; read-out: Rel. Inhibition of NPA peak currents, 500 µM substrate, 100 µM NPA, individual sensors): 91.1%
inhibition at 1000 µM (PIN8; read-out: Rel. Inhibition of NPA peak currents, 1000 µM substrate, 100 µM NPA, individual sensors): 95.2%
Rel. 2,4-D transport rate (% exported/min) (A. thaliana PIN3; PID +): 2.469 % exported/min and 1.491 % exported/min and 1.857 % exported/min
Rel. 2,4-D transport rate (% exported/min) (A. thaliana PIN3; PID -): 1.104 % exported/min and -0.5881 % exported/min and -1.06 % exported/min
export rate relative to the IAA transport rate (A. thaliana PIN3; PIN3 activated by PID kinase, NPA-sensitive): about half of the IAA transport rate
Rel. 2,4-D transport rate (A. thaliana PIN3; PID +, NPA + (10 μM)): 0.306 % exported/min and 0.1671 % exported/min and -0.318 % exported/min
Rel. 2,4-D transport rate (A. thaliana PIN3; PID +, NPA -): 2.085 % exported/min and 2.202 % exported/min and 1.56 % exported/min
Rel. 2,4-D transport rate (A. thaliana PIN3; PID -, NPA + (10 μM)): 0.4736 % exported/min and -0.2953 % exported/min and -0.2713 % exported/min
Rel. 2,4-D transport rate (A. thaliana PIN3; PID -, NPA -): -0.1695 % exported/min and 0.4151 % exported/min and -0.6296 % exported/min
